Molecular target: T1, sweet taste receptor (Homo sapiens, UniProt Q7RTX0+Q8TE23)
T1 sequence (Q8TE23 20-839): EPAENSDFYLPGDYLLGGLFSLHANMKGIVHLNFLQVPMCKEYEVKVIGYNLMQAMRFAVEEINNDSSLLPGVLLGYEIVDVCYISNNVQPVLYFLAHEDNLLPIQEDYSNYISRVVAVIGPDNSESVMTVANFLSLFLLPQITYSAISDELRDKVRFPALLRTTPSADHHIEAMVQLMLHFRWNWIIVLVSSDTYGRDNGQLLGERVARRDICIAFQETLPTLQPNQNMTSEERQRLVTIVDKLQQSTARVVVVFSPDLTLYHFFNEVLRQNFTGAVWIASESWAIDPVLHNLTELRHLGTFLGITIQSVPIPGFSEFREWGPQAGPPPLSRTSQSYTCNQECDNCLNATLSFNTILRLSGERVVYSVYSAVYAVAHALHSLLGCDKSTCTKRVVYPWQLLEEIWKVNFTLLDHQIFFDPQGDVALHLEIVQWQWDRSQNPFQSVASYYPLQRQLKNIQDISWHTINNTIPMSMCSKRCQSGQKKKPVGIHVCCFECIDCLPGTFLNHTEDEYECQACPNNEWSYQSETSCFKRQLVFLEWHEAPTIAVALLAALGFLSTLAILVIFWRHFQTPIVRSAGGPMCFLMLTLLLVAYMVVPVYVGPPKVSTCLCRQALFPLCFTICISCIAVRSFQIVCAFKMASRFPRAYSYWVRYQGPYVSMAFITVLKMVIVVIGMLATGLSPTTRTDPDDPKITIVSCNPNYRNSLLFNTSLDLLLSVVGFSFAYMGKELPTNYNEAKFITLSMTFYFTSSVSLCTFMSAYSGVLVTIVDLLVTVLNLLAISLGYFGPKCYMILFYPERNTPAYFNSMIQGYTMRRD
T1 sequence (Q7RTX0 21-852): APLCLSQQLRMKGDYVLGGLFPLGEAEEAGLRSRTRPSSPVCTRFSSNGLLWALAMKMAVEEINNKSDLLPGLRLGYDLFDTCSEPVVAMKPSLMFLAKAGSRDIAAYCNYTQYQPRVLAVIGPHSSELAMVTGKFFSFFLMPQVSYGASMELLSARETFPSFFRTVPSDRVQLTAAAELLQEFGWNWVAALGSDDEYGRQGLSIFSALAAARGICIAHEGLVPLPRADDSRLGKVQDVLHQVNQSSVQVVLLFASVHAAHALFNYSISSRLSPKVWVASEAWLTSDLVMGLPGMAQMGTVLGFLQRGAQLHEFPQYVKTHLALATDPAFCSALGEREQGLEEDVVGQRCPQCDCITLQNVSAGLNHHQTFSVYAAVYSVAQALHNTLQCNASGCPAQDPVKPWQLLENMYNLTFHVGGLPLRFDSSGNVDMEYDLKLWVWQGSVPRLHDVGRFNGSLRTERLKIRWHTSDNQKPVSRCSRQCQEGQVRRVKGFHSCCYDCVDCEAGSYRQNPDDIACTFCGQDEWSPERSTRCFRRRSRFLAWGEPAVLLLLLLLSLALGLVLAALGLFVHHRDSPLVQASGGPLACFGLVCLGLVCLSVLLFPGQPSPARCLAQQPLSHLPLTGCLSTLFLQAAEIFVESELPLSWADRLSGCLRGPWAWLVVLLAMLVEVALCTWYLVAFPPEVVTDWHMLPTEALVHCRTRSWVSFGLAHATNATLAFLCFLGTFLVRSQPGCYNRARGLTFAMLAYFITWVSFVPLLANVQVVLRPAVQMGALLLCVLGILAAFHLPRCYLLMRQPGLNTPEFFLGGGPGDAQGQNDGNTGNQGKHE
Experiment: Synergy effects (sweet taste receptor signal increase) in binary compound mixtures
Format: cell-based
Conditions: calculated as L(X&Y)/(L(X)+L(Y)); for Synergy effect observed in binary compound mixture with sucralose: partner sucralose; for Synergy effect observed in binary compound mixture with sucrose: partner sucrose; for Synergy effect observed in binary compound mixture with NHDC: partner NHDC; for Synergy effect observed in binary compound mixture with Reb A: partner Reb A; for Synergy effect observed in binary compound mixture with Thaumatin: partner Thaumatin; for Synergy effect observed in binary compound mixture with Aspartame: partner Aspartame
Description: The present example describes sweet taste receptor signal increases calculated for the following sweeteners: aspartame, sucrose, sucralose, rebaudioside A, rebaudioside D, thaumatin, NHDC, and S819 are present in various combinations in a binary mixture as shown in Table 1.
Synergy between binary mixtures of the sweeteners was calculated as following: L(X&Y)/(L(X)+L(Y)).

`C=C1C[C@@]23CC[C@H]4[C@@](C)(CCC[C@@]4(C)C(=O)O[C@@H]4O[C@H](CO)[C@@H](O)[C@H](O)[C@H]4O[C@@H]4O[C@H](CO)[C@@H](O)[C@H](O)[C@H]4O)[C@@H]2CC[C@]1(O[C@@H]1O[C@H](CO)[C@@H](O)[C@H](O[C@@H]2O[C@H](CO)[C@@H](O)[C@H](O)[C@H]2O)[C@H]1O[C@@H]1O[C@H](CO)[C@@H](O)[C@H](O)[C@H]1O)C3` [Reb D, Rebaudioside D] was tested, and the “Synergy effect observed in binary compound mixture with sucralose” value was 0.3 and the “Synergy effect observed in binary compound mixture with sucrose” value was 0.25.
With `CC(C)Oc1ccc(NC(=S)NCc2ccc[nH]2)cc1` [S819, 1-((1H-pyrrol-2-yl)methyl)-3-(4-isopropoxyphenyl)thiourea] the “Synergy effect observed in binary compound mixture with NHDC” value was 0.4, the “Synergy effect observed in binary compound mixture with Reb A” value was 0.25 and the “Synergy effect observed in binary compound mixture with Thaumatin” value was 0.4.
For `COc1ccc(CCC(=O)c2c(O)cc(O[C@@H]3O[C@H](CO)[C@@H](O)[C@H](O)[C@H]3O[C@@H]3O[C@@H](C)[C@H](O)[C@@H](O)[C@H]3O)cc2O)cc1O` [NHDC], the “Synergy effect observed in binary compound mixture with Aspartame” value was 0.5 and the “Synergy effect observed in binary compound mixture with Thaumatin” value was 0.06.
With Thaumatin the “Synergy effect observed in binary compound mixture with Aspartame” value was 0.5 and the “Synergy effect observed in binary compound mixture with Reb A” value was 0.4.
With `C=C1C[C@@]23CC[C@H]4[C@@](C)(CCC[C@@]4(C)C(=O)O[C@@H]4O[C@H](CO)[C@@H](O)[C@H](O)[C@H]4O)[C@@H]2CC[C@]1(O[C@@H]1O[C@H](CO)[C@@H](O)[C@H](O[C@@H]2O[C@H](CO)[C@@H](O)[C@H](O)[C@H]2O)[C@H]1O[C@@H]1O[C@H](CO)[C@@H](O)[C@H](O)[C@H]1O)C3` [Reb A, Rebaudioside A] the “Synergy effect observed in binary compound mixture with NHDC” value was 0.25, the “Synergy effect observed in binary compound mixture with sucralose” value was 0.3 and the “Synergy effect observed in binary compound mixture with sucrose” value was 0.5.

— patent US20240185945A1, “SYSTEMS AND METHODS FOR MODELING AND DISPLAYING SWEETENER SYNERGY” (WM. WRIGLEY JR. COMPANY, priority 2022, published 2024)
